Among the data in PMC4523340 (British Journal of Pharmacology, 2015) are Kd and pEC50 values, retold here.

The target in assay [1] is T1, 5-HT7(b) receptor (Homo sapiens, UniProt P34969). Kind of assay: saturation radioligand binding, membranes. The note with it: read-out: [^3H]-mesulergine / Kd; labelled compound; stable HEK293.
For a further assay, the target named is 5-HT7(d) receptor (Homo sapiens, UniProt P34969). In words: saturation radioligand binding, membranes. To be noted: read-out: [^3H]-mesulergine / Kd; labelled compound; stable HEK293.
5-HT7(d) receptor, sequence (P34969 whole entry): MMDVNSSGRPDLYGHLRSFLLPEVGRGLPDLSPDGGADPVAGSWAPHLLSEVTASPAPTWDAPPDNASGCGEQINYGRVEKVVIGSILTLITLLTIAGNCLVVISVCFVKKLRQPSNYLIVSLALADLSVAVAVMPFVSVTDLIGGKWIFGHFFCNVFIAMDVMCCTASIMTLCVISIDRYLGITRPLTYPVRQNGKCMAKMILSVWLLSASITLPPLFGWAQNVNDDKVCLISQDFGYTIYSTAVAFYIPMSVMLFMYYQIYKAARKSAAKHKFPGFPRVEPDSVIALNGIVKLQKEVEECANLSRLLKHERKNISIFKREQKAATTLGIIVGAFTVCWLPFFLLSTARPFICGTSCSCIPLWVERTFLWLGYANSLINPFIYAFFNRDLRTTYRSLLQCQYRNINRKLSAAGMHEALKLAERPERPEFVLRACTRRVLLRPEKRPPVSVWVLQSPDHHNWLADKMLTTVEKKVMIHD
For a further assay, the target named is 5-HT7(a) receptor (Homo sapiens, UniProt P34969). Kind of assay: saturation radioligand binding, membranes. The note with it: read-out: [^3H]-mesulergine / Kd; labelled compound; stable HEK293.
5-HT7(a) receptor, sequence (P34969 1-445 isoform P34969-2): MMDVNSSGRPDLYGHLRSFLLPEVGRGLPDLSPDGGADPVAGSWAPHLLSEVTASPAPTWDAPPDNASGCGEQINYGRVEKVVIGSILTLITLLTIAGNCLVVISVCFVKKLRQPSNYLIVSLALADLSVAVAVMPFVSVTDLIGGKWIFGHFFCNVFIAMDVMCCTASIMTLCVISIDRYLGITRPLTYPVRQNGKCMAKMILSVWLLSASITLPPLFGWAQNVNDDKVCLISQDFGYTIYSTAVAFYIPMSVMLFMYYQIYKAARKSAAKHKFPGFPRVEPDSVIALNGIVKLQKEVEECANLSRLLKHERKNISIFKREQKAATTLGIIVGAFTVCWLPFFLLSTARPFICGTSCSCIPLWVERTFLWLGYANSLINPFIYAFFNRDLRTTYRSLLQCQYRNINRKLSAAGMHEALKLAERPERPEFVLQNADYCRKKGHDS
Assay [2] has as its target T1, 5-HT7(b) receptor.

Structures are written as SMILES. Counter-ions that a name gives are not always drawn.

T1 sequence (P34969 1-432 limits assumed): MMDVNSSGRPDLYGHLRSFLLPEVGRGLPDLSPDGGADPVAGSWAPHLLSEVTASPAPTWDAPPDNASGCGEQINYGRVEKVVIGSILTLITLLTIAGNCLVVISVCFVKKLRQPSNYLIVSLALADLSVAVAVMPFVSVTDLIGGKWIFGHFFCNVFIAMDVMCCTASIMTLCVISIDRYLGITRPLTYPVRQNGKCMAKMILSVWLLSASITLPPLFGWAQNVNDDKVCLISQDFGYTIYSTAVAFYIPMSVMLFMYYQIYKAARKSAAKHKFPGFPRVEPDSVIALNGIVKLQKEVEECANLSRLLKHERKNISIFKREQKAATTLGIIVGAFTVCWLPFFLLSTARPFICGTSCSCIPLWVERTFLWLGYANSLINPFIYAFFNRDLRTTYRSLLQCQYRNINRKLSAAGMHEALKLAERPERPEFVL

As a reminder, the pEC50 is −log10 of the EC50, conventionally taken in molar units. High values mean a low EC50, low ones a high EC50. Consider `CN1C[C@@H](NS(=O)(=O)N(C)C)C[C@@H]2c3cccc4c3c(cn4C)C[C@H]21` [mesulergine, N′-[(8a)-1,6-dimethylergolin-8-yl]-N,N-dimethylsulfamide hydrochloride], for which the Kd at 5-HT7(b) receptor [1] worked out at 6.2 ± 0.7 nM; at 5-HT7(d) receptor, 9.6 ± 1.2 nM; on 5-HT7(a) receptor, 9.2 ± 1.6 nM. This compound came in with a pEC50 on 5-HT7(b) receptor [2] of 8.7 ± 0.1.
